Target: T1, HMG-CoA reductase (Homo sapiens, UniProt P04035)
T1 construct: oxidation of NADPH by the catalytic subunit of HMGR in the presence of the substrate HMG-CoA; purchased Sigma-Aldrich CS1090 (kit); H8789 (HMG-CoA reductase)
T1 sequence (P04035 340-888 limits assumed): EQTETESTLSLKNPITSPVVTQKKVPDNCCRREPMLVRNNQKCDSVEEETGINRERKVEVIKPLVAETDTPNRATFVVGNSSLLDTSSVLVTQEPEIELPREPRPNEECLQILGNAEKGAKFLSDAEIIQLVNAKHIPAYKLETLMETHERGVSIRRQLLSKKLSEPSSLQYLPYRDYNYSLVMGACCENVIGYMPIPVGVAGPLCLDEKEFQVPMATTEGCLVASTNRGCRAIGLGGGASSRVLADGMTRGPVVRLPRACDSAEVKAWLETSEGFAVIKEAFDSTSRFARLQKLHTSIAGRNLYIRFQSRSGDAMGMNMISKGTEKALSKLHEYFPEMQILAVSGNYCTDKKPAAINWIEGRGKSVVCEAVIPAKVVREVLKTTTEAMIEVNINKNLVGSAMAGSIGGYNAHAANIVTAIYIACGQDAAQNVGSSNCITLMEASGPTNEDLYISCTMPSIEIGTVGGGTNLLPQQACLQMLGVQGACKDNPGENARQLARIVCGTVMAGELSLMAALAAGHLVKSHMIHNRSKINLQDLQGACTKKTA
Test: HMG-CoA Reductase assay kit (spectrophotometric NADPH absorbance at 340 nm)
Assay type: biochemical
Settings: NADPH and HMG-CoA both 200 μM, inhibitor concentrations varied from 0 nM to 50 nM, 37° C.
Protocol: All assays were carried out in a reaction buffer containing […] KxPO4 at pH 7.2, 1 mM EDTA, 500 mM KCl and 1 mg/ml BSA. The concentrations of NADPH and HMG-CoA were both 200 μM. […] Absorbance readings were then taken every 20 seconds for 600 seconds. […] After these were identified, assays were carried out varying their concentrations from 0 nM to 50 nM allowing IC50 values to be calculated.
This is illustrated in the following reaction scheme:
HMG-CoA+2NADPH+2H^+→mevalonate+2NADP^++CoA-SH
Add a buffer to all samples. • b. […] Add the reconstituted NADPH to all samples. • d. Add Substrate Solution (HMG-CoA) to all samples. • e. […] Mix the samples thoroughly.
3. The kinetics programme was started immediately.

IC50 [nM] | Structure (SMILES)
< 1 | COC1C[C@H](OC(=O)c2cccnc2)C[C@@H](CCn2c(-c3ccc(F)cc3)c(-c3ccccc3)c(C(=O)Nc3ccccc3)c2C(C)C)O1 (some centres unmarked)
1 | C=CCOC1C[C@H](OCc2ccccc2)C[C@@H](CCn2c(-c3ccc(F)cc3)c(-c3ccccc3)c(C(=O)Nc3ccccc3)c2C(C)C)O1 (some centres unmarked)
4 | CC(C)OC1C[C@H](OCc2ccccc2)C[C@@H](CCn2c(-c3ccc(F)cc3)c(-c3ccccc3)c(C(=O)Nc3ccccc3)c2C(C)C)O1 (some centres unmarked)
< 1 | CC(C)c1c(C(=O)Nc2ccccc2)c(-c2ccccc2)c(-c2ccc(F)cc2)n1CC[C@@H]1C[C@@H](O)CC(OC2CCCCC2)O1 (some centres unmarked)
3 | CC(C)c1c(C(=O)Nc2ccccc2)c(-c2ccccc2)c(-c2ccc(F)cc2)n1CC[C@@H]1C[C@@H](OCc2ccccc2)CC(OC(C)(C)C)O1 (some centres unmarked)
< 1 | COc1ccc(OC2C[C@H](O)C[C@@H](CCn3c(-c4ccc(F)cc4)c(-c4ccccc4)c(C(=O)Nc4ccccc4)c3C(C)C)O2)c(OC)c1 (some centres unmarked)
3 | CC(C)c1c(C(=O)Nc2ccccc2)c(-c2ccccc2)c(-c2ccc(F)cc2)n1CC[C@@H]1C[C@@H](O)CC(=O)O1
< 1 | CCCOC1C[C@H](O)C[C@@H](CCn2c(-c3ccc(F)cc3)c(-c3ccccc3)c(C(=O)Nc3ccccc3)c2C(C)C)O1 (some centres unmarked)
